This is an account of results in patent US4749798A, “Fluoro coumarins as antilymphoedema agents” (priority 1984, dated 1988).

Data set [1] concerns carrageenan induced edema of the rats hind paw. Nature of the data set: carrageenan induced edema of the rat hind paw. The format is in vivo. The settings on record: for activity relative to coumarin: "at least 1.5-2.5 times more active than coumarin"; for reduction of carrageenan induced edema: at all the times (1; 3; 4 and 5 h). An excerpt:
6-fluoro coumarin and the compounds of the invention are also effective in the management of the acute inflammation.
The carrageenan edema test proposed by Winter C. A., Risley A., Noss G. W. (Proc. Soc. Exp. Biol., 101, 544, 1962) was used.
The compounds, administered i.p. 30' before the carrageenan as suspension in 1% aqueous carboxymethylcellulose homogeneized by ultrasounds, were compared with coumarin at different dose-levels on 6 animal groups. The percent reduction of the rat hind paw edema was evaluated at different times.

The test system of data set [2] is burning induced oedema of hind paws. The data set is described as follows: burning induced oedema test. The format is in vivo, Sprague-Dawley male rats. The settings on record: burning induced oedema. Here is the method: Reduction of the burning induced oedema test has been also used to evidentiate the antiinflammatory activity and the proteolytic mechanism of action of the compounds of the invention. 18 hours-fasted Sprague-Dawley male rats, body weight: 170-220 g, are used in this testing procedure. The animals are divided into five animal groups and the volume (in ml) of the posterior hind paws is measured before these paws are burnt by immersion for 22 seconds in 55° C. heated water. 15 minutes after burning, the animals are treated, by oral route, with different dosages of the investigated compounds and placebo. The volume of paws is measured 6, 12 and 18 hours after burning and the increased volume of the paws is evaluated.

Data set [3] concerns blood-dot area in right ear. Nature of the data set: re-absorption of citrated blood injected in the rabbit ear (blood-dot area). The format is in vivo, New Zealand rabbits. The settings on record: oral, placebo 20.3. Here is the method:
Finally, the compounds of the invention are able to induce re-absorption of the total citrated blood when blood is injected in the right ear of New Zealand rabbits. 12 hours after blood inoculation into ear, the animal were randomized and treated with scalar doses of the investigated compounds administered for 4 days by oral route. The blood-dot areas are evaluated and compared with the areas of the control animals treated with placebo only. In table 5 are reported some experimental results.

The subject of data set [4] is mouse peritoneal macrophages. The data set is described as follows: proteolysis by mouse peritoneal macrophages. The settings on record: 50 mg/kg i.p. in sesame oil, 10 replication; coumarin = 1.
Text: Ability of the 6-fluoro coumarin itself, and the other compounds of the invention, to increase proteolysis by mouse peritoneal macrophages is shown by using the testing procedure reported by T. Bolton and J. R. Casley-Smith, Experimentia, 31, 275 (1975).
Due to the great standard error, many replications are necessary in order to obtain reliable dose-response curves.
In data set [5] the test system is coagulation factors. Nature of the data set: coagulation parameters (DPTT, Hepato quick, clotting time). The format is in vivo. The settings on record: oral, 2 consecutive days, equimolecular doses.
Data set [6] relates to coagulation. The settings on record: Schofield; Feuer et al.; cited from earlier work.

As for `COC1Oc2ccc(F)cc2C=C1Br` (stereo not drawn) [6-fluoro-3-bromo-2.xi.-methoxy-2H-1-benzopyrane], in data set [1], the “activity relative to coumarin” value is 1.5-2.5 times and the “reduction of carrageenan induced edema” value is on record as “reduce carrageenan induced edema of the rats hind paw at all the times”. The “activity relative to 6-fluoro coumarin (equiactive)” value in data set [2] is 0.85-1.5 times.

For `COC1C=Cc2cc(F)ccc2O1` (stereo not drawn) [6-fluoro-2.xi.-methoxy-2H-1-benzopyrane], the “% Reduction of the edema by carrageenan” value in data set [1] (0.76 mg/kg i.p., 3 h) stood at 58%; in data set [1] (1.55 mg/kg i.p., 3 h), 70%; in data set [1] (3.12 mg/kg i.p., 3 h), 79%; in data set [1] (3.12 mg/kg i.p., 5 h), 87%; in data set [1] (6.25 mg/kg i.p., 3 h), 84%. For the same compound, the “activity relative to coumarin” value in data set [1] is given as 1.5-2.5 times. Besides, the “reduction of carrageenan induced edema” value in data set [1] is listed as “reduce carrageenan induced edema of the rats hind paw at all the times”. Also, in data set [2], the “activity relative to 6-fluoro coumarin (equiactive)” value was 0.85-1.5 times.

Take `Cc1cc(=O)oc2ccc(F)cc12` [4-methyl-6-F, 6-fluoro-4-methyl-2H-1-benzopyran-2-one]: in data set [1], the “activity relative to coumarin” value is recorded as 1.5-2.5 times and the “reduction of carrageenan induced edema” value was “reduce carrageenan induced edema of the rats hind paw at all the times”. The “activity relative to 6-fluoro coumarin (equiactive)” value in data set [2] is given as 0.85-1.5 times. Besides, the “% reduction of blood-dot area after 4 days” value (“% reduction of blood-dot area” for short) in data set [3] (50 mg/kg pro die) worked out at 65%. In addition, the “Potency ratio in the proteolytic test” value in data set [4] is on record as 1.78.

In the case of `O=c1ccc2cc(F)cc(F)c2o1` [6,8-difluoro, 6,8-difluoro-2H-1-benzopyran-2-one], the “Potency ratio in the proteolytic test” value in data set [4] is on record as 1.45.

With `O=c1oc2ccccc2c(O)c1Cc1c(O)c2ccccc2oc1=O` [dicoumarol, reference compound], in data set [5], the “effect on DPTT” value is “very strong effect” and the “effect on Hepato quick” value is “very strong effect”. In addition, the anticoagulant activity entry in data set [6] is listed as “anticoagulant activites”.

`OC1Oc2ccc(F)cc2C=C1Br` (stereo not drawn) [6-fluoro-3-bromo-2.xi.-hydroxy-2H-1-benzopyrane]: the “% Reduction of the edema by carrageenan” value is 65% in data set [1] (0.76 mg/kg i.p., 3 h); 72% in data set [1] (1.55 mg/kg i.p., 3 h); 88% in data set [1] (3.12 mg/kg i.p., 3 h); 84% in data set [1] (3.12 mg/kg i.p., 5 h); 87% in data set [1] (6.25 mg/kg i.p., 3 h).

On to `O=c1oc2ccc(F)cc2cc1Br` [3-Br--6-fluoro, 6-fluoro-3-bromo-2H-1-benzopyran-2-one], for which, in data set [1], the “activity relative to coumarin” value is 1.5-2.5 times and the “reduction of carrageenan induced edema” value is “reduce carrageenan induced edema of the rats hind paw at all the times”. In addition, in data set [2], the “activity relative to 6-fluoro coumarin (equiactive)” value is listed as 0.85-1.5 times. For the same compound, the “% reduction of blood-dot area” value in data set [3] (50 mg/kg pro die) is given as 69%. In data set [4], the “Potency ratio in the proteolytic test” value was 1.75.

Take `OC1C=Cc2cc(F)ccc2O1` (stereo not drawn) [6-fluoro-2H--1-benzopyran-2.zeta.-ol, 6-fluoro-2H-1-benzopyran-2.xi.-ol]: in data set [1], the “activity relative to coumarin” value is recorded as 1.5-2.5 times and the “reduction of carrageenan induced edema” value is recorded as “reduce carrageenan induced edema of the rats hind paw at all the times”. In addition, the “% reduction of blood-dot area” value in data set [3] (40 mg/kg pro die) was 59%. Further, the “Potency ratio in the proteolytic test” value in data set [4] is listed as 1.45.

On to `CC(C)OC1C=Cc2cc(F)ccc2O1` (stereo not drawn) [6-fluoro-2.xi.-isopropoxy-2H-1-benzopyrane], for which, in data set [1], the “activity relative to coumarin” value is 1.5-2.5 times and the “reduction of carrageenan induced edema” value is recorded as “reduce carrageenan induced edema of the rats hind paw at all the times”. In data set [2], the “activity relative to 6-fluoro coumarin (equiactive)” value is reported as 0.85-1.5 times. Also, the “Potency ratio in the proteolytic test” value in data set [4] was 1.61.

Turning to `O=c1oc2ccc(F)cc2cc1Cl` [3-Cl--6-fluoro, 6-fluoro-3-chloro-2H-1-benzopyran-2-one], the “Potency ratio in the proteolytic test” value in data set [4] turned out to be 1.4.
